In one assay the target is T1, PFKFB3 bisphosphatase (Homo sapiens, UniProt Q16875).
T1 construct: His tag (N, cleaved yes); made in house; host or cells: Escherichia coli BL21 (DE3) Plys
Put plainly: PFKFB3 bisphosphatase activity by LC-MS/MS quantitation of F6P. The assay is classed as biochemical. The following applies: for Effect on bisphosphatase activity / substrate conversion rate vs enzyme alone: Dunnett's multiple comparisons test (two-way ANOVA); for h, Hill coefficient (PFKFB3 in presence of compound) / Vmax (Hill equation, PFKFB3 in presence of compound): Hill fit of bisphosphatase kinetics; for h, Hill coefficient (PFKFB3 in presence of compound): enzyme alone 2.03; for Vmax (Hill equation, PFKFB3 in presence of compound): maximum velocity at enzyme saturation, enzyme alone 0.16; for Enzyme velocity: enzyme 100 nM, compound at 50 µM or equal to its KD, 18 h at 37 °C, Tris buffer pH 8, LC-MS/MS of F6P; for Khalf (Hill equation, PFKFB3 in presence of compound): substrate concentration giving half of maximum velocity, enzyme alone 21.51, in µM (unit assumed). The protocol:
HPLC grade water (18 MΩ) was prepared with a Milli-Q purification system (Millipore, Milan, IT). Ammonium formate, fructose-6-phosphate (F6P), Tris HCl, glycerol, 2-mercaptoethanol, sodium phosphate and Amicon-ultra centrifugal filters (30 kDa) were purchased from Sigma Aldrich. F2,6BP was kindly provided by Prof. Lisardo Boscá from Spanish National Research Council in Madrid, Spain. Compound AZ 33 was provided by Carlo DeDominicis, University of Aberdeen. Phosphatase activity of PFKFB3 was measured by quantitation of the reaction product (i.e. F6P) by means of liquid chromatography tandem mass spectrometry. Enzyme reaction rate was determined after 18 h of incubation at 37 °C in sterile (0.22 µm filtered) Tris buffer (20 mM Tris-HCl pH 8; 10 mM sodium phosphate; 5 mM 2-mercaptoethanol and 5% of glycerol) at a final enzyme concentration of 100 nM. Both the enzyme and the substrate (i.e. fructose-2,6-bisphosphate, F2,6BP) were pre-warmed at 37 °C for five min before starting the kinetics by spiking the substrate into the enzyme solution. To plot the enzyme kinetics, the reaction rate was measured in independent experiments at different concentration of substrate (i.e. 5, 10, 15, 20, 25, 30, 40 and 50 µM). Diafiltration on amicon-ultra filters (30 kDa MWCO) was used to stop the reactions. Both the residual substrate and the product were collected in the filtrate, while the enzyme was retained by the filter. The same protocol was used to measure the effect of ligands on enzyme phosphatase activity. For such a purpose the reaction rate was measured at the same substrate concentrations, but the enzyme was incubated with the compound and pre-warmed before starting the kinetics. Compounds were incubated with the enzyme at a concentration 50 µM or equal to their KD, if available. Independent analyses were done without the enzyme (i.e. controls) to assess any degradation of the substrate in the same experimental condition used for the enzyme kinetics. The concentration of the […] produced by the kinetics was determined by interpolation with a calibration curve obtained by the analysis of fructose-6-phosphate standards prepared in a concentration range between 0.5 µM and 50 µM. The velocity was calculated as nanomoles of F6P produced in one min by a nanomole of PFKFB3, subtracting the nanomoles of F6P produced by self-degradation of the substrate from the nanomoles of F6P produced by the enzyme kinetic.
Quantitation of F6P produced was provided by a Surveyor HPLC system connected to a TSQ Quantum Ultra triple quadrupole mass spectrometer by a Finnigan IonMax electrospray ionization (ESI) source assembled with a high flow stainless steel emitter (Thermo Scientific, Rodano, MI, Italy). Filtrate containing the kinetics products were diluted 1:4 in water and placed into the autosampler rack, which was cooled at 8 °C to prevent sample degradation during analyses. […] Table 1 reports the mobile phases and gradient program used for the elution.
The flow from the column was directly sprayed into the mass spectrometer with no further splitting. Nebulization and ionization were achieved by 70 units of sheath gas, 25 units of auxiliary gas, a capillary temperature of 270 °C and a spray voltage of −4.5 kV. The analyzer was set to scan the negative ions reported in Table 2 in Multiple Reaction Monitoring mode (MRM), with a scan time of 0.05 seconds and a resolution of 0.5 m/z for both the first and the third quadrupoles. The MRM transitions reported in Table 2 were previously optimized in a semi-automatic mode to achieve the best instrumental response and selectivity for fructose-6-phosphate, by flow injection of a standard solution.
In order to determine the effect of the PFKFB3-binding compounds on the bisphosphatase activity, a LC-MS/MS analytical method was developed. Firstly, separate kinetics were measured for the enzyme alone or equilibrated with compounds 4–8. […]

In assay [1] the target is T2, RED-NHS labeled recombinant PFKFB3 (Homo sapiens, UniProt Q16875).
T2 construct: His tag (N, cleaved yes); made in house; host or cells: Escherichia coli BL21 (DE3) Plys
Put plainly: Microscale thermophoresis (MST) binding assay. The following applies: for Binding Affinity: 100 nM RED-NHS labeled PFKFB3, 20 min at room temperature, Table 3; for KD: Table S3, list of synthesized peptides from VS. The protocol: The PFKFB3 plasmid was provided by Prof. Yong-Hwan Lee from Louisiana State University. The His-tagged human inducible bifunctional enzyme (GenBank code: AF056320.1) was expressed in Escherichia coli BL21 (DE3) Plys as reported previously. The PFKFB3 protein was purified using nickel affinity columns and the N-terminal His tag was removed using a standard protocol. After the treatment with thrombin the protein was eluted with an anion-exchange column. The pure protein was concentrated to 2–10 mg/mL and stored in 20 mM Tris HCl pH 8.0, 10 mM NaPi, 5 mM β-mercaptoethanol and 5% glycerol.
The dissociation constant was determined using Nanotemper microscale thermophoresis (MST)[38]. In a typical experiment, a compound was dissolved in MST buffer and mixed with 100 nM RED-NHS labeled recombinant PFKFB3 in 1:1 ratio. The mixture was incubated at room temperature for 20 min. and a full MST measurement was performed. Data were analyzed with Nanotemper software (https://nanotempertech.com/monolith/).
In general terms: MST reads how a fluorescent partner responds to local heating, with and without ligand.

[2] abbreviates: substrate F2,6BP 20 µM, asterisks = significance vs enzyme alone (two-way ANOVA, Dunnett).
Where [3] appears, read: substrate F2,6BP 25 µM, asterisks = significance vs enzyme alone.
Where [4] appears, read: substrate F2,6BP 30 µM, asterisks = significance vs enzyme alone.
[5] abbreviates: substrate F2,6BP 40 µM, asterisks = significance vs enzyme alone.
[6] abbreviates: substrate F2,6BP 50 µM, asterisks = significance vs enzyme alone.

Entries after “also recorded” stand apart in the source; their conditions may differ.

T2 sequence (Q16875 whole entry): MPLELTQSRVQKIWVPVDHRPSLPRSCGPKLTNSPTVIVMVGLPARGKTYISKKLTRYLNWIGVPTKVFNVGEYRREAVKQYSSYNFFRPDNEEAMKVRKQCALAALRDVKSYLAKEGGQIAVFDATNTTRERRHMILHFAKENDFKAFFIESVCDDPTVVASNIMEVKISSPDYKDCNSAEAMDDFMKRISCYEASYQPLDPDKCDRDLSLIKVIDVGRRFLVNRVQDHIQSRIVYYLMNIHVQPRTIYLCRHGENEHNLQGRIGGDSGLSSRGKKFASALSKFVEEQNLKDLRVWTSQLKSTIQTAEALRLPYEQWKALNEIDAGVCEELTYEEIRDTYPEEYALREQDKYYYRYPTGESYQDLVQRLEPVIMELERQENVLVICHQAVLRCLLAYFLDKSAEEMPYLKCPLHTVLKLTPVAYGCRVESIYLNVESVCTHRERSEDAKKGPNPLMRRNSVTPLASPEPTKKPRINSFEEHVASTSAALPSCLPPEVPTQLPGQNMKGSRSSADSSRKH
T1 sequence (Q16875 whole entry): as above

With `CC(C)C[C@H](NC(=O)[C@H](Cc1ccccc1)NC(=O)CNC(=O)[C@H](CO)NC(=O)[C@@H](N)Cc1ccc(O)cc1)C(=O)N[C@H](C(=O)O)[C@@H](C)O` [Compound 4], the “Effect on bisphosphatase activity / substrate conversion rate vs enzyme alone” value on PFKFB3 bisphosphatase is given as “no significant variations”. Besides, the “h, Hill coefficient (PFKFB3 in presence of compound)” value (shortened to “h, Hill coefficient”) on PFKFB3 bisphosphatase came to 2.39. In addition, on PFKFB3 bisphosphatase, the “Vmax (Hill equation, PFKFB3 in presence of compound)” value (shortened to “Vmax”) was 0.18. The Enzyme velocity on PFKFB3 bisphosphatase (setting [2]) is on record as 0.05 ± 0.03 nmol/min of F6P per nmol of enzyme; on PFKFB3 bisphosphatase (setting [3]) it was 0.07 ± 0.04 nmol/min of F6P per nmol of enzyme; on PFKFB3 bisphosphatase (setting [4]), 0.12 ± 0.03 nmol/min of F6P per nmol of enzyme; on PFKFB3 bisphosphatase (setting [5]), 0.13 ± 0.04 nmol/min of F6P per nmol of enzyme; on PFKFB3 bisphosphatase (setting [6]), 0.14 ± 0.01 nmol/min of F6P per nmol of enzyme. At PFKFB3 bisphosphatase, the “Khalf (Hill equation, PFKFB3 in presence of compound)” value (from here on “Khalf”) was 26.54.

With SFLLRN-CONH2 [Compound 7], in assay [1], the “Binding Affinity” value is “not able to bind the enzyme; also recorded: No evidence of binding” and the KD entry is “No binding”. At PFKFB3 bisphosphatase, the “Effect on bisphosphatase activity / substrate conversion rate vs enzyme alone” value is “no significant variations”; the “h, Hill coefficient” value was found to be 1.95; the “Vmax” value amounted to 0.19; the “Khalf” value was determined as 28.12. For the same compound, on PFKFB3 bisphosphatase (setting [2]), the Enzyme velocity was 0.07 ± 0.01 nmol/min of F6P per nmol of enzyme. Moreover, the Enzyme velocity at PFKFB3 bisphosphatase (setting [3]) is 0.07 ± 0.04 nmol/min of F6P per nmol of enzyme. The Enzyme velocity at PFKFB3 bisphosphatase (setting [4]) is 0.11 ± 0.04 nmol/min of F6P per nmol of enzyme. Also, the Enzyme velocity on PFKFB3 bisphosphatase (setting [5]) is 0.14 ± 0.01 nmol/min of F6P per nmol of enzyme. The Enzyme velocity at PFKFB3 bisphosphatase (setting [6]) was 0.14 ± 0.01 nmol/min of F6P per nmol of enzyme.

For the compound Trp-Gly-Tyr [Compound 8], in assay [1], the “Binding Affinity” value is reported as “not able to bind the enzyme; also recorded: No evidence of binding” and the KD result is “No binding”. Besides, at PFKFB3 bisphosphatase, the “Effect on bisphosphatase activity / substrate conversion rate vs enzyme alone” value was “no significant variations”; the “h, Hill coefficient” value came to 2.24; the “Vmax” value came to 0.21; the “Khalf” value is listed as 32.83. Further, the Enzyme velocity on PFKFB3 bisphosphatase (setting [2]) was 0.06 ± 0.03 nmol/min of F6P per nmol of enzyme. Also, the Enzyme velocity at PFKFB3 bisphosphatase (setting [3]) is 0.05 ± 0.00 nmol/min of F6P per nmol of enzyme. Moreover, at PFKFB3 bisphosphatase (setting [4]), the Enzyme velocity was 0.10 ± 0.01 nmol/min of F6P per nmol of enzyme. The Enzyme velocity on PFKFB3 bisphosphatase (setting [5]) is recorded as 0.14 ± 0.05 nmol/min of F6P per nmol of enzyme. Also, the Enzyme velocity at PFKFB3 bisphosphatase (setting [6]) is reported as 0.14 ± 0.04 nmol/min of F6P per nmol of enzyme.

The values are drawn from publication PMC6937325, “Tuning PFKFB3 Bisphosphatase Activity Through Allosteric Interference” (Scientific Reports, 2019).
